Where a name gives a salt, the structure may show the parent alone.

One experiment has as its system NQO1 specific enzyme activity in BEAS-2B cells (marker for NRF2 activation). The experiment is described as follows: BEAS-2B NQO1 MTT Assay. The format is cell-based. Particulars: Homo sapiens, BEAS-2B, 48 h, NQO1 specific activity induction, 48 hours with compound. Put shortly:
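Following 48 h compound treatment at 37° C., 5% CO2, cells were lysed and MTT cocktail added. Product formation was followed kinetically at 570 nm for 30 min. Rate (Delta OD/min) against log concentration was fitted with 3 parameters to give pEC50 for induction of NQO1 specific activity.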
As to `CCn1cc(COC(c2ccc(C)c(CN(C3CCCCC3)S(=O)(=O)c3cccc(OC)c3)c2)C(C)(C)C(=O)O)nn1` (stereo not shown) [Example 96, 3-(3-(((N-cyclohexyl-3-methoxyphenyl)sulfamido)methyl)-4-methylphenyl)-3-((1-ethyl-1H-1,2,3-triazol-4-yl)methoxy)-2,2-dimethylpropanoic acid], the EC50 (in general, the concentration at which the effect is half-maximal) lay in the range of 100 to 1000 nM.

For `CCn1cc(CO[C@@H](c2ccc(C)c(CN3C[C@H](C)Cc4ccccc4S3(=O)=O)c2)C(C)(C)C(=O)O)nn1` [Example 65, (3S)-((1-ethyl-1H-1,2,3-triazol-4-yl)methoxy)-2,2-dimethyl-3-(4-methyl-3-(((R)-4-methyl-1,1-dioxido-4,5-dihydrobenzo[f][1,2]thiazepin-2(3H)-yl)methyl)phenyl)propanoic acid], the EC50 was 100 to 1000 nM.

In the case of `CCCn1cc(CO[C@H](c2ccc(C)c(CN3C[C@@H](C)Cc4ncccc4S3(=O)=O)c2)C(C)(C)C(=O)O)nn1` [Example 89, (R)-2,2-dimethyl-3-(4-methyl-3-(((S)-4-methyl-1,1-dioxido-4,5-dihydropyrido[2,3-f][1,2]thiazepin-2(3H)-yl)methyl)phenyl)-3-((1-propyl-1H-1,2,3-triazol-4-yl)methoxy)propanoic acid], the EC50 was < 1 nM.

As for `COC(=O)C(C)(C)C(OCc1cn(Cc2cccc(-c3ccc(C(=O)O)cn3)c2)nn1)c1ccc(C)c(CN2C[C@@H](C)Oc3ccccc3S2(=O)=O)c1` (stereo partly drawn) [Example 59, 6-(3-((4-((3-Methoxy-2,2-dimethyl-1-(4-methyl-3-(((R)-4-methyl-1,1-dioxido-3,4-dihydro-2H-benzo[b][1,4,5]oxathiazepin-2-yl)methyl)phenyl)-3-oxopropoxy)methyl)-1H-1,2,3-triazol-1-yl)methyl)-phenyl)nicotinic acid], the EC50 lay in the range of 1000 to 10000 nM.

Consider `CCCn1cc(CO[C@H](c2ccc(C)c(CN3C[C@@H](C)Cc4ccncc4S3(=O)=O)c2)C(C)(C)C(=O)O)nn1` [Example 83, (R)-2,2-dimethyl-3-(4-methyl-3-(((S)-4-methyl-1,1-dioxido-4,5-dihydropyrido[4,3-f][1,2]thiazepin-2(3H)-yl)methyl)phenyl)-3-((1-propyl-1H-1,2,3-triazol-4-yl)methoxy)propanoic acid], for which the EC50 is < 1 nM.

Take `CC[C@@H]1Cc2ccccc2S(=O)(=O)N(Cc2cc([C@@H](OCc3cn(CC)nn3)C(C)(C)C(=O)O)ccc2C)C1` [Example 77, (3R)-((1-ethyl-1H-1,2,3-triazol-4-yl)methoxy)-2,2-dimethyl-3-(4-methyl-3-(((R)-4-ethyl-1,1-dioxido-4,5-dihydrobenzo[f][1,2]thiazepin-2(3H)-yl)methyl)phenyl)propanoic acid]: the EC50 lay within 1 to 10 nM.

For the compound `CCCn1cc(CO[C@H](c2ccc(C)c(CN3C[C@@H](C)Cc4ccc(C(F)(F)F)cc4S3(=O)=O)c2)C(C)(C)C(=O)O)nn1` [Example 86, (R)-2,2-dimethyl-3-(4-methyl-3-(((S)-4-methyl-1,1-dioxido-8-(trifluoromethyl)-4,5-dihydrobenzo[f][1,2]thiazepin-2(3H)-yl)methyl)phenyl)-3-((1-propyl-1H-1,2,3-triazol-4-yl)methoxy)propanoic acid], the EC50 is < 1 nM.

Regarding `Cc1ccc([C@@H](OCc2cn(CCOCCn3cc(CO[C@H](c4ccc(C)c(CN5C[C@@H](C)Oc6ccccc6S5(=O)=O)c4)C(C)(C)C(=O)O)nn3)nn2)C(C)(C)C(=O)O)cc1CN1C[C@@H](C)Oc2ccccc2S1(=O)=O` (relative stereo) [Example 51, (R,rel-3R, rel-3′R)-3,3′-(((1,1′-(oxybis(ethane-2,1-diyl))bis(1H-1,2,3-triazole-4,1-diyl))bis(methylene))bis(oxy))bis(2,2-dimethyl-3-(4-methyl-3-(((R)-4-methyl-1,1-dioxido-3,4-dihydro-2H-benzo[b][1,4,5]oxathiazepin-2-yl)methyl)phenyl)propanoic acid)], the EC50 lay within 1000 to 10000 nM.

As for `CC[C@@H]1CN(Cc2cc([C@H](OCc3cn(CC)nn3)C(C)(C)C(=O)O)ccc2C)S(=O)(=O)c2ccccc2O1` [Example 6, (S)-3-(3-(((R)-4-ethyl-1,1-dioxido-3,4-dihydro-2H-benzo[b][1,4,5]oxathiazepin-2-yl)methyl)-4-methylphenyl)-3-((1-ethyl-1H-1,2,3-triazol-4-yl)methoxy)-2,2-dimethylpropanoic acid], the EC50 was in the range of 1 to 10 nM.

With `CCn1cc(CO[C@@H](c2ccc(C)c(CN3C[C@H](C)Cc4ncccc4S3(=O)=O)c2)C(C)(C)C(=O)O)nn1` [Example 64, (3S)-((1-ethyl-1H-1,2,3-triazol-4-yl)methoxy)-2,2-dimethyl-3-(4-methyl-3-(((R)-4-methyl-1,1-dioxido-4,5-dihydropyrido[2,3-f][1,2]thiazepin-2(3H)-yl)methyl)phenyl)propanoic acid], the EC50 is 100 to 1000 nM.

Turning to `C#CCOC(c1ccc(C)c(CN2C[C@@H](C)Oc3ccccc3S2(=O)=O)c1)C(C)(C)C(=O)O` (stereo partly drawn) [Example 2, 2,2-Dimethyl-3-(4-methyl-3-(((R)-4-methyl-1,1-dioxido-3,4-dihydro-2H-benzo[b][1,4,5]oxathiazepin-2-yl)methyl)phenyl)-3-(prop-2-yn-1-yloxy)propanoic acid], the EC50 fell in the range of 100 to 1000 nM.

As for `CCn1cc(COC(c2ccc(C)c(CN(C3CCCCC3)S(=O)(=O)c3ccccc3)c2)C(C)(C)C(=O)O)nn1` (stereo not shown) [Example 98, 3-(3-((N-cyclohexylphenylsulfonamido)methyl)-4-methylphenyl)-3-((1-ethyl-1H-1,2,3-triazol-4-yl)methoxy)-2,2-dimethylpropanoic acid], the half-maximal effective concentration (EC50) lay in the range of 10 to 100 nM.

Turning to `Cc1ccc(C(OCc2cn(Cc3cccc(Cn4cc(CC(=O)O)nn4)c3)nn2)C(C)(C)C(=O)O)cc1CN1C[C@@H](C)Oc2ccccc2S1(=O)=O` (stereo partly drawn) [Example 44, 3-((1-(3-((4-(Carboxymethyl)-1H-1,2,3-triazol-1-yl)methyl)benzyl)-1H-1,2,3-triazol-4-yl)methoxy)-2,2-dimethyl-3-(4-methyl-3-(((R)-4-methyl-1,1-dioxido-3,4-dihydro-2H-benzo[b][1,4,5]oxathiazepin-2-yl)methyl)phenyl)propanoic acid], the EC50 was in the range of 100 to 1000 nM.

Consider `Cc1ccc(C(OCc2cn(Cc3cccc(Cn4cc(CCO)nn4)c3)nn2)C(C)(C)C(=O)O)cc1CN1C[C@@H](C)Oc2ccccc2S1(=O)=O` (stereo partly drawn) [Example 40, 3-((1-(3-((4-(2-Hydroxyethyl)-1H-1,2,3-triazol-1-yl)methyl)benzyl)-1H-1,2,3-triazol-4-yl)methoxy)-2,2-dimethyl-3-(4-methyl-3-(((R)-4-methyl-1,1-dioxido-3,4-dihydro-2H-benzo[b][1,4,5]oxathiazepin-2-yl)methyl)phenyl)propanoic acid], for which the EC50 lay within 100 to 1000 nM.

Consider `CCn1cc(COC(c2ccc(C)c(CN(Cc3ccccc3)S(=O)(=O)c3cccc(C(=O)O)c3)c2)C(C)(C)C(=O)O)nn1` (stereo not shown) [Example 95, 3-(N-benzyl-N-(5-(2-carboxy-1-((1-ethyl-1H-1,2,3-triazol-4-yl)methoxy)-2-methylpropyl)-2-methylbenzyl)sulfamoyl)benzoic acid], for which the EC50 is 100 to 1000 nM.

With `Cc1ccc(C(OCc2cn(CC3CCN(S(C)(=O)=O)CC3)nn2)C(C)(C)C(=O)O)cc1CN1C[C@@H](C)Oc2ccccc2S1(=O)=O` (stereo partly drawn) [Example 36, 2,2-Dimethyl-3-(4-methyl-3-(((R)-4-methyl-1,1-dioxido-3,4-dihydro-2H-benzo[b][1,4,5]oxathiazepin-2-yl)methyl)phenyl)-3-((1-((1-(methylsulfonyl)piperidin-4-yl)methyl)-1H-1,2,3-triazol-4-yl)methoxy)propanoic acid], the EC50 lay in the range of 10 to 100 nM.

Consider `Cc1ccc(C(OCc2cn(CC3CCN(C(N)=O)CC3)nn2)C(C)(C)C(=O)O)cc1CN1C[C@@H](C)Oc2ccccc2S1(=O)=O` (stereo partly drawn) [Example 100, 3-((1-((1-Carbamoylpiperidin-4-yl)methyl)-1H-1,2,3-triazol-4-yl)methoxy)-2,2-dimethyl-3-(4-methyl-3-(((R)-4-methyl-1,1-dioxido-3,4-dihydro-2H-benzo[b][1,4,5]oxathiazepin-2-yl)methyl)phenyl)propanoic acid], for which the EC50 was in the range of 100 to 1000 nM.

For `CCCn1cc(CO[C@H](c2ccc(C)c(CN(Cc3cccc(C(=O)O)c3)S(=O)(=O)c3cccc(C(=O)O)c3)c2)C(C)(C)C(=O)O)nn1` [Example 92, (R)-3-(N-(5-(2-carboxy-2-methyl-1-((1-propyl-1H-1,2,3-triazol-4-yl)methoxy)propyl)-2-methylbenzyl)-N-(3-carboxybenzyl)sulfamoyl)benzoic acid], the EC50 lay within 1000 to 10000 nM.

`CC[C@H]1Cc2cccnc2CN(Cc2cc([C@H](OCc3cn(CC)nn3)C(C)(C)C(=O)O)ccc2C)C1` [Example 116, (S)-methyl 3-((1-ethyl-1H-1,2,3-triazol-4-yl)-methoxy)-3-(3-(((S)-6-ethyl-6,7-dihydro-5H-pyrido[2,3-c]azepin-8(9H)-yl)methyl)-4-methylphenyl)-2,2-dimethyl-propanoic acid, trifluoroacetate]: the EC50 was 10 to 100 nM.

In the case of `CC[C@@H]1CN(Cc2cc(C(OCc3cn(Cc4cccc(-c5ccc(C(=O)O)c(F)c5)c4)nn3)C(C)(C)C(=O)O)ccc2C)S(=O)(=O)c2ccccc2O1` (stereo partly drawn) [Example 24, 3′-((4-((2-Carboxy-1-(3-(((R)-4-ethyl-1,1-dioxido-3,4-dihydro-2H-benzo[b][1,4,5]oxathiazepin-2-yl)methyl)-4-methylphenyl)-2-methylpropoxy)methyl)-1H-1,2,3-triazol-1-yl)methyl)-3-fluoro-[1,1′-biphenyl]-4-carboxylic acid], the 50% effective concentration (EC50) was 10 to 100 nM.

Regarding `CCCN1CCC(Cn2cc(COC(c3ccc(C)c(CN4C[C@@H](C)Oc5ccccc5S4(=O)=O)c3)C(C)(C)C(=O)O)nn2)CC1` (stereo partly drawn) [Example 52, 2,2-Dimethyl-3-(4-methyl-3-(((R)-4-methyl-1,1-dioxido-3,4-dihydro-2H-benzo[b][1,4,5]oxathiazepin-2-yl)methyl)phenyl)-3-((1-((I-propylpiperidin-4-yl)methyl)-1H-1,2,3-triazol-4-yl)methoxy)propanoic acid], the EC50 is 100 to 1000 nM.

The experiment is the same for the next values; noted with them: NQO1 specific activity induction, 48 hours with compound.
For `Cc1ccc(C(OCc2cn(CC(C)C)nn2)C(C)(C)C(=O)O)cc1CN1C[C@@H](C)Oc2ccccc2S1(=O)=O` (single isomer, unassigned) [Example 13], the 50% effective concentration (EC50) was in the range of 1 to 10 nM.

Values taken from patent US12091409B2, “Ether linked triazoles as NRF2 activators” (ASTEX THERAPEUTICS LIMITED, priority 2016, dated 2024).
